Source: patent US11964973B2 (priority 2019, dated 2024)
Where two headings read alike, the source gives them in different places.

What was measured:
[1] = system: naïve human CD8 T cells (IFN-γ); test: Human CD8 T cells IFN-γ assay; format: cell-based; settings: T-cell
Protocol: Assay 8: Human CD8 T Cells IFN-γ Assay
Frozen naïve human CD8 T cells were thawed in AIM-V media, incubated for 2 h in 37° C., and counted. The 384-well tissue culture plate was coated overnight at 4° C. with 20 μL anti-human CD3 at 0.05 μg/mL in PBS, which was removed off the plate before 40,000 cells per 40 microliters CD8 T cells with 0.1 μg/mL soluble anti-human CD28 were added to each well. The compounds were transferred using an Echo liquid handler to the cell plate immediately after the cells were plated. After 20 h incubation at 37° C. incubator, 3 microliters per well supernatants transferred into a new 384-well white assay plate for cytokine measurement.
Interferon-γ (IFN-γ) was quantitated using the AlphLISA kit (Cat #AL217) as described by the manufacturer manual (Perkin Elmer). The counts from each well were converted to IFN-γ concentration (pg/mL).

[2] = molecular target: DGKα (Homo sapiens (Human), UniProt P23743); test: biochemical; format: biochemical; settings: liposome (LIPGLO) assay; read-out: DGKα LIPGLO IC50
[3] = molecular target: human DGKζ (Homo sapiens (Human), UniProt Q13574); test: biochemical; format: biochemical; settings: liposome (LIPGLO) assay; read-out: DGKζ LIPGLO IC50
[4] = system: Human venous whole blood (IFN-γ); test: Human whole blood IFN-γ assay; format: cell-based
Protocol: Assay 10: Human Whole Blood IFN-γ Assay
Human venous whole blood (22.5 μL per well), obtained from healthy donors, was pre-treated with compounds for one hour at 37° C. in a humidified 95% air/5% CO2 incubator. The blood was stimulated with 2.5 μL anti-human CD3 and anti-CD28 mAb at a final concentration of 1 μg/mL each for 24 hours at 37° C. IFN-γ in the supernatants was measured using AlphLISA kit (Cat #AL217).

[5] = system: OT-1 CD8+ T cells with SIINFEKL-loaded MC38 tumor cells; test: Murine cytotoxic T lymphocyte assay (IFN-γ); format: cell-based, mouse; settings: Mus musculus, MC-38; for EC50: murine cytotoxic T lymphocyte assay, read-out: msCTL; for IC50: murine cytotoxic T lymphocyte, IFN-γ, read-out: msCTL INFg IC50
Procedure, shortened: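 OT-1 CD8+ T cells, expanded 5 days with OVA peptide and mIL2, pretreated 1 h with DGK inhibitor, then cocultured overnight at 37 °C with peptide-pulsed MC38 cells (1:10 ratio). IFN-γ in supernatant measured after 24 h by AlphaLisa.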

[6] = molecular target: Human DGKα(9-727) (Homo sapiens (Human), UniProt P23743); test: biochemical; settings: liposome (LIPGLO) assay; Table A; read-out: DGKα LIPGLO IC50
[7] = molecular target: full length human DGKζ (Homo sapiens (Human), UniProt Q13574); test: In vitro DGK inhibition assay, Method B (DGKζ LIPGLO, extruded liposomes); format: biochemical; settings: liposome (LIPGLO) assay; read-out: DGKζ LIPGLO IC50
[8] = system: human venous whole blood, CD8 positive population (pERK); test: DGK human whole blood pERK assay; format: cell-based; settings: top concentration 20 μM
Procedure, shortened: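 Heparinized whole blood from healthy donors preincubated with compound 1 hour at 37° C. Stimulation used anti-CD3 at 1 μg/mL final plus cross-linking goat anti-mouse IgG for 15 minutes. Flow cytometry scored percentage pERK-positive cells among CD8-positive cells.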

[9] = system: naïve human CD8 T cells; test: CellTiter-Glo CD8 T cell proliferation assay; format: cell-based; settings: Homo sapiens, read-out: CD8 GLO Normalized EC50
Procedure, shortened: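 Thawed naïve human CD8 T cells (20 k/well) were stimulated with plate-bound anti-CD3 (0.1 μg/mL coating) and 0.5 μg/ml soluble anti-CD28, with compounds added right after plating. After 72 h at 37° C, proliferation was read by CellTiter-Glo luminescence. The signal from stimulated cells was taken as background.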

[10] = read-out: HuCD8 INFG Normalized EC50
[11] = human whole blood, anti-CD3 plus anti-CD28, 24 hours, read-out: INFg Whole Blood Normalized Agonist EC50
[12] = Homo sapiens, human whole blood IFN-γ, read-out: INFg Whole Blood
[13] = read-out: DGK HWB (human whole blood pERK), human whole blood, CD8 positive population, anti-CD3 stimulation
[14] = human whole blood, CD8 positive population, anti-CD3 stimulation, read-out: DGK HWB (human whole blood pERK)
[15] = Homo sapiens, CD8 positive, human whole blood, CD8 positive population, anti-CD3 stimulation, read-out: DGK HWB (human whole blood pERK)

Sequence of full length human DGKζ (Q13574 whole entry, looked up): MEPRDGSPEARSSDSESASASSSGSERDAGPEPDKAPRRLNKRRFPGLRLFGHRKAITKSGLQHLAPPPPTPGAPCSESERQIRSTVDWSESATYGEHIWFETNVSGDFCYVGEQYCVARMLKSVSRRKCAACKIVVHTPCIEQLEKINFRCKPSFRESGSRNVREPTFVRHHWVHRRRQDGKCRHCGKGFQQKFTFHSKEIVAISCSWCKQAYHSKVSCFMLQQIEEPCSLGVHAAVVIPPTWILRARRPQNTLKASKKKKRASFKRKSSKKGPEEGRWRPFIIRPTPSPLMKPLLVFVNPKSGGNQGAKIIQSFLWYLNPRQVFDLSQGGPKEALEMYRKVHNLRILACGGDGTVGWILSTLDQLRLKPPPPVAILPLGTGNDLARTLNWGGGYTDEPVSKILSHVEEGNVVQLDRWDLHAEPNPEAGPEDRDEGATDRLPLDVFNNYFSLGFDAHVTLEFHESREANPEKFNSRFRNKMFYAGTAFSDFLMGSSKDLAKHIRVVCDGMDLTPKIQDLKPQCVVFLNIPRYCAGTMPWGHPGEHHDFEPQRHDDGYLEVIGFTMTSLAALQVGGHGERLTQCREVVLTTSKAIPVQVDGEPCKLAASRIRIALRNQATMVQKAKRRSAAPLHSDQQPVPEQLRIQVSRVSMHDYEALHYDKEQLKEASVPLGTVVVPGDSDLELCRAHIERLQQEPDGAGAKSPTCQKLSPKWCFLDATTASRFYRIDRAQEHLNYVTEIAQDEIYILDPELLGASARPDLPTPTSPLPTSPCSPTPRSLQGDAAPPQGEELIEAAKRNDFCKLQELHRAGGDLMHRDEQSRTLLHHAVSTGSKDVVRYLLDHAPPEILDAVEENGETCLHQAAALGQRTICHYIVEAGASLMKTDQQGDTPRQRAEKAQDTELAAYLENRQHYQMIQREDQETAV
Sequence of human DGKζ (Q13574 whole entry, looked up): as above
Sequence of DGKα (P23743 whole entry, looked up): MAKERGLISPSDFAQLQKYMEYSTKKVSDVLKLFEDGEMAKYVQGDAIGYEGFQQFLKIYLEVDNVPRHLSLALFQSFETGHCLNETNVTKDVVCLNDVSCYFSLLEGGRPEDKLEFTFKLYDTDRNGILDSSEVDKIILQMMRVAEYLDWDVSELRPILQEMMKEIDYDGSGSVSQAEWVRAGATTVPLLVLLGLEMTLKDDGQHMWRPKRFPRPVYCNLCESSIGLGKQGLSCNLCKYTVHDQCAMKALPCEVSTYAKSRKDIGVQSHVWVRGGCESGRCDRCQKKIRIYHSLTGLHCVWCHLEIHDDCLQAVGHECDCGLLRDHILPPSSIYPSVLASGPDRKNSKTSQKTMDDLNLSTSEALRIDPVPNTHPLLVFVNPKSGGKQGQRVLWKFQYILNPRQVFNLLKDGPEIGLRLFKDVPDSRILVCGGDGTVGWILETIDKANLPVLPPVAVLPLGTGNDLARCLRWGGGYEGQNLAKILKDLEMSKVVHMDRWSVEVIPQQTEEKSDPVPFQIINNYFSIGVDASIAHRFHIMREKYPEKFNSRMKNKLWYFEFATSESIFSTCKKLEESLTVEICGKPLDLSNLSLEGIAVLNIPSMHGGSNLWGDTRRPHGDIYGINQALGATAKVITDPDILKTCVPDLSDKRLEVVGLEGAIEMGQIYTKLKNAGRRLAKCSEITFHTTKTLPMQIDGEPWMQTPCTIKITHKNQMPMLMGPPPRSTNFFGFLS
Sequence of Human DGKα(9-727) (P23743 whole entry, looked up): as above

SMILES: Cn1c(=O)c(Br)c(N2CCC(Oc3ccc(OC(F)(F)F)cc3)CC2)c2nc(C#N)ccc21 [Example 239, 7-bromo-5-methyl-6-oxo-8-(4-(4-(trifluoromethoxy)phenoxy)piperidin-1-yl)-5,6-dihydro-1,5-naphthyridine-2-carbonitrile]
- EC50 ([1]; read-out: HuCD8 INFG): 820 nM

SMILES: CCC(C)(C)c1ccc(O[C@@H]2CCN(c3cc(=O)n(C)c4ccc(C#N)nc34)C[C@H]2C)cc1 (single isomer, unassigned) [Example 83]
- IC50 [2]: 280 nM
- IC50 [3]: 5800 nM
- EC50 [1, 10]: 2.5 nM
- EC50 [4, 11]: 360 nM

SMILES: Cn1c(=O)c(F)c(N2CCC(Oc3ccc(OC(F)(F)F)cc3)CC2)c2nc(C#N)ccc21 [Example 237, 7-fluoro-5-methyl-6-oxo-8-(4-(4-(trifluoromethoxy)phenoxy)piperidin-1-yl)-5,6-dihydro-1,5-naphthyridine-2-carbonitrile]
- EC50 [5]: 200 nM
- EC50 ([1]; read-out: HuCD8 INFG): 340 nM
- EC50 [4, 12]: 3300 nM

SMILES: Cn1c(=O)c(Cl)c(N2CCC(Oc3ccc(OC(F)(F)F)cc3)CC2)c2nc(C#N)ccc21 [Example 238, 7-chloro-5-methyl-6-oxo-8-(4-(4-(trifluoromethoxy)phenoxy)piperidin-1-yl)-5,6-dihydro-1,5-naphthyridine-2-carbonitrile]
- EC50 ([1]; read-out: HuCD8 INFG): 160 nM

SMILES: COc1ccc(-c2c(N3CCC(Oc4ccc(OC(F)(F)F)cc4)CC3)c3nc(C#N)ccc3n(C)c2=O)cn1 [Example 240, 7-(6-methoxypyridin-3-yl)-5-methyl-6-oxo-8-(4-(4-(trifluoromethoxy)phenoxy)piperidin-1-yl)-5,6-dihydro-1,5-naphthyridine-2-carbonitrile]
- EC50 [5]: 580 nM
- EC50 ([1]; read-out: HuCD8 INFG): 1000 nM
- EC50 [4, 12]: 5300 nM

SMILES: Cn1c(=O)cc(N2CCC(Oc3ccc(OC(F)(F)F)cc3)CC2)c2nc(C#N)ccc21 [Example 52, 5-methyl-6-oxo-8-(4-(4-(trifluoromethoxy)phenoxy)piperidin-1-yl)-5,6-dihydro-1,5-naphthyridine-2-carbonitrile]
- IC50 [2]: 800 nM
- IC50 [3]: 3800 nM
- IC50 [5]: 150 nM
- EC50 [1, 10]: 1000 nM
- EC50 ([4]; Homo sapiens, 24 h, human whole blood, anti-CD3 plus anti-CD28, 24 hours, read-out: INFg Whole Blood Normalized Agonist EC50): 2700 nM

SMILES: COc1cc(-c2c(N3CCC(Oc4ccc(OC(F)(F)F)cc4)CC3)c3nc(C#N)ccc3n(C)c2=O)ccn1 [Example 241, 7-(2-methoxypyridin-4-yl)-5-methyl-6-oxo-8-(4-(4-(trifluoromethoxy)phenoxy)piperidin-1-yl)-5,6-dihydro-1,5-naphthyridine-2-carbonitrile]
- EC50 [5]: 570 nM
- EC50 ([1]; read-out: HuCD8 INFG): 1300 nM
- EC50 [4, 12]: 10000 nM

SMILES: COCCO[C@@H]1CN(c2cc(=O)n(C)c3ccc(C#N)nc23)CC[C@H]1Oc1cccc(C(F)(F)F)c1 [Example 389, 8-((3R,4R)-3-(2-methoxyethoxy)-4-(3-(trifluoromethyl)phenoxy)piperidin-1-yl)-5-methyl-6-oxo-5,6-dihydro-1,5-naphthyridine-2-carbonitrile]
- IC50 [6]: 2500 nM
- IC50 [7]: 270 nM
- EC50 [8, 13]: 3000 nM

SMILES: CCO[C@@H]1CN(c2nc(=O)n(C)c3ccc(C#N)nc23)CC[C@H]1Oc1ccc(OC(C)C)cn1 (relative stereo) [Example 401, trans-4-(3-Ethoxy-4-((5-isopropoxypyridin-2-yl)oxy)piperidin-1-yl)-1-methyl-2-oxo-1,2-dihydropyrido[3,2-d]pyrimidine-6-carbonitrile]
- IC50 [6]: 830 nM
- IC50 [7]: 390 nM
- EC50 [8, 14]: 2300 nM

SMILES: CCO[C@H]1CN(c2cc(=O)n(C)c3ccc(C#N)nc23)CC[C@@H]1OCc1cccc(C(F)(F)F)c1 [Example 381, 8-((3S,4S)-3-ethoxy-4-((3-(trifluoromethyl)benzyl)oxy)piperidin-1-yl)-5-methyl-6-oxo-5,6-dihydro-1,5-naphthyridine-2-carbonitrile]
- IC50 [6]: 310 nM
- IC50 [7]: 7400 nM
- EC50 [8, 15]: 240 nM

SMILES: CC(C)O[C@@H]1CN(c2cc(=O)n(C)c3ccc(C#N)nc23)CC[C@H]1Oc1cccc(C(F)(F)F)c1 (relative stereo) [Example 395, trans-8-(3-Isopropoxy-4-(3-(trifluoromethyl)phenoxy)piperidin-1-yl)-5-methyl-6-oxo-5,6-dihydro-1,5-naphthyridine-2-carbonitrile]
- IC50 [6]: 320 nM
- IC50 [7]: 69 nM
- EC50 [8, 14]: 910 nM

SMILES: CCO[C@H]1CN(c2cc(=O)n(C)c3ccc(C#N)nc23)CC[C@@H]1Oc1cnc(OC(C)C)cn1 [Example 377, 8-((3S,4S)-3-ethoxy-4-((5-isopropoxypyrazin-2-yl)oxy)piperidin-1-yl)-5-methyl-6-oxo-5,6-dihydro-1,5-naphthyridine-2-carbonitrile]
- IC50 [6]: 130 nM
- IC50 [7]: 75 nM
- EC50 [8, 14]: 450 nM

SMILES: CN(C)CCO[C@@H]1CN(c2cc(=O)n(C)c3ccc(C#N)nc23)CC[C@H]1Oc1cccc(C(F)(F)F)c1 [Example 386, 8-((3R,4R)-3-(2-(dimethylamino)ethoxy)-4-(3-(trifluoromethyl)phenoxy)piperidin-1-yl)-5-methyl-6-oxo-5,6-dihydro-1,5-naphthyridine-2-carbonitrile]
- IC50 [6]: 130000 nM
- IC50 [7]: 42000 nM
- EC50 [8, 15]: 20000 nM

SMILES: Cc1ccc(OC2CCN(c3c(C#N)c(=O)n(C)c4ccc(Cl)nc34)CC2)cc1 [Example 21, 6-chloro-1-methyl-2-oxo-4-(4-(p-tolyloxy)piperidin-1-yl)-1,2-dihydro-1,5-naphthyridine-3-carbonitrile]
- IC50 [2]: 770 nM
- IC50 [3]: 7800 nM
- EC50 [9]: 92 nM
- IC50 [5]: 1700 nM
- EC50 [1, 10]: 160 nM

SMILES: C[C@@H]1CN(c2cc(=O)n(C)c3ccc(C#N)nc23)CC[C@H]1Oc1ccc(OC(C)(C)C)cc1 [Example 85, 8-((3R,4R)-4-(4-(tert-butoxy)phenoxy)-3-methylpiperidin-1-yl)-5-methyl-6-oxo-5,6-dihydro-1,5-naphthyridine-2-carbonitrile]
- IC50 [2]: 80 nM
- EC50 [1, 10]: 610 nM
- EC50 [4, 11]: 2200 nM

SMILES: CCO[C@H]1CN(c2nc(=O)n(C)c3ccc(C#N)nc23)CC[C@@H]1Oc1ccc(C(F)(F)F)cc1 [Example 404, 4-((3S,4S)-3-ethoxy-4-(4-(trifluoromethyl)phenoxy)piperidin-1-yl)-1-methyl-2-oxo-1,2-dihydropyrido[3,2-d]pyrimidine-6-carbonitrile]
- IC50 [6]: 5600 nM
- IC50 [7]: 1200 nM
- EC50 ([8]; Homo sapiens, CD8 positive, read-out: DGK HWB (human whole blood pERK), human whole blood, CD8 positive population, anti-CD3 stimulation): 1300 nM

SMILES: CCO[C@H]1CN(c2nc(=O)n(C)c3ccc(C#N)nc23)CC[C@@H]1Oc1ccccc1 (relative stereo) [Example 402, trans-4-(3-Ethoxy-4-phenoxypiperidin-1-yl)-1-methyl-2-oxo-1,2-dihydropyrido[3,2-d] pyrimidine-6-carbonitrile]
- IC50 [6]: 2100 nM
- IC50 [7]: 900 nM
- EC50 [8, 13]: 2800 nM

SMILES: Cn1c(=O)cc(N2CC[C@@H](Oc3cccc(C(F)(F)F)c3)[C@H](OCC3CC3)C2)c2nc(C#N)ccc21 [Example 387, 8-((3R,4R)-3-(cyclopropylmethoxy)-4-(3-(trifluoromethyl)phenoxy)piperidin-1-yl)-5-methyl-6-oxo-5,6-dihydro-1,5-naphthyridine-2-carbonitrile]
- IC50 [6]: 2100 nM
- IC50 [7]: 97 nM
- EC50 [8, 14]: 650 nM
